# Source: patent publication US9371331B2, “Modulators of methyl modifying enzymes, compositions and uses thereof” (Constellation Pharmaceuticals, Inc., priority 2012, dated 2016)
# pIC50: −log10 of the molar value. Read-outs that look alike come from different tables or passages of the source.
# Legend:
# [1] = target: Y641N EZH2 (Homo sapiens, UniProt Q15910, Y641N); assay: Y641N EZH2 assay: as EZH2 assay, with reconstituted H3K27Me2 oligonucleosomes as substrate; type: biochemical
# [2] = target: EZH2 (rPRC2) (Homo sapiens, UniProt Q15910); assay: EZH2 assay: rPRC2, biotinylated oligonucleosomes, 3H SAM methyl transfer (FlashPlate scintillation); type: biochemical; settings: biotinylated oligonucleosome substrate
# [3] = Y641N EZH2 IC50, Y641N mutant EZH2, H3K27Me2 oligonucleosome substrate
# [4] = EZH2 IC50, wild-type EZH2 (rPRC2)
# [5] = Y641N mutant EZH2, H3K27Me2 oligonucleosome substrate, read-out: Y641N EZH2 IC50
# [6] = wild-type EZH2 (rPRC2), read-out: EZH2 IC50
# Sequence of Y641N EZH2 (Q15910 whole entry Y641N): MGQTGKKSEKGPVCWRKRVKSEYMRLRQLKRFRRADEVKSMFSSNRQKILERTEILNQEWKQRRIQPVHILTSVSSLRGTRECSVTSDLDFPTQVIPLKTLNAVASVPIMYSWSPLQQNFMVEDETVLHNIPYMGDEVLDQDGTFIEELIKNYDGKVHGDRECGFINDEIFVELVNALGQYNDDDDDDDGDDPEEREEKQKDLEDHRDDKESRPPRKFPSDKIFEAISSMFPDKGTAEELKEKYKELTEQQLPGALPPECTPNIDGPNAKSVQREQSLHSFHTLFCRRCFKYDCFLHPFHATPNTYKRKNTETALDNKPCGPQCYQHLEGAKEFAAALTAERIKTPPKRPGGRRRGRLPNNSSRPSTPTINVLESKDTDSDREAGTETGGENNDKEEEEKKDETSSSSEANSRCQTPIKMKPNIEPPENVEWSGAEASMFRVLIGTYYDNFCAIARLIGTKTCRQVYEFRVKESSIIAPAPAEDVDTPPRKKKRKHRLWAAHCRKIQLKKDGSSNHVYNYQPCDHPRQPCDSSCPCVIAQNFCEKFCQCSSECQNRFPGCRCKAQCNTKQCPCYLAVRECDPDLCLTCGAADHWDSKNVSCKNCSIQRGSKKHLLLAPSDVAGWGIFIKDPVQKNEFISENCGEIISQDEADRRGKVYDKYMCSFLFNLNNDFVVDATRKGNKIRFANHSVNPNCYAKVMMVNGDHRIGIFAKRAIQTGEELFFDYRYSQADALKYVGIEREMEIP
# Sequence of Y641N EZH2 (O75530 whole entry partner): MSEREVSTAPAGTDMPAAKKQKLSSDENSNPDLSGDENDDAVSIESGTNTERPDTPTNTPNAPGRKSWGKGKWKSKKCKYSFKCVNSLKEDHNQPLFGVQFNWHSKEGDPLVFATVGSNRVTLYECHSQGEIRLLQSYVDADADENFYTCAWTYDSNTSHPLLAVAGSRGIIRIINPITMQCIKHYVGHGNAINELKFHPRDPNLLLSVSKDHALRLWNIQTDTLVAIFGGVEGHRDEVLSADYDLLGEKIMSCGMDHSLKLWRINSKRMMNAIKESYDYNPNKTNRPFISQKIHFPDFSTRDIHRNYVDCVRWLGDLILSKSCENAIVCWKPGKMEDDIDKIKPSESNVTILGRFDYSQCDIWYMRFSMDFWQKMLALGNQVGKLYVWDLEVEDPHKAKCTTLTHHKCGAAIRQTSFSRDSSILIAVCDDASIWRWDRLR
# Sequence of Y641N EZH2 (Q15022 whole entry partner): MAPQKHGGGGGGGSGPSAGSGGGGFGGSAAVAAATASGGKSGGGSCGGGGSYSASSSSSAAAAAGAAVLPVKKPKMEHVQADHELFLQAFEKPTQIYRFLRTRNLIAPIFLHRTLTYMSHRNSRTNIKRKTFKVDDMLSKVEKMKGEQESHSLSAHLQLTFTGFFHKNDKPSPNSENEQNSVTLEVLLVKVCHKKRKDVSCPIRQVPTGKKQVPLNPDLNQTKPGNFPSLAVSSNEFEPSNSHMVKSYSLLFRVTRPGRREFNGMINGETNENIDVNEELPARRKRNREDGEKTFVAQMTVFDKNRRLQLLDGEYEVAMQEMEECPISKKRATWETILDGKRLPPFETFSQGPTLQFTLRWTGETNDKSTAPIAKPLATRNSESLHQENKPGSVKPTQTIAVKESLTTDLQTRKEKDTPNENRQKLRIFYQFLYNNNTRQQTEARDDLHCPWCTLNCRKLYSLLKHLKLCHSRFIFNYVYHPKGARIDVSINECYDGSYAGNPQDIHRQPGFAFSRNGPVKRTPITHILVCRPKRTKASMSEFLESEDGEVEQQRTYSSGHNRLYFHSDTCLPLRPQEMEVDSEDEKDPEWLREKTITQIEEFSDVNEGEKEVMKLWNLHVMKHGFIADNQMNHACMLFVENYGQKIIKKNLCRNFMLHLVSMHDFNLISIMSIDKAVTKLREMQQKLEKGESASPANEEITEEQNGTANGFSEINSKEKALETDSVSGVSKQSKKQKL
# Sequence of EZH2 (rPRC2) (Q15910 whole entry): as the sequence (Q15910 whole entry Y641N) above, with N641Y counted along it
# Sequence of EZH2 (rPRC2) (O75530 whole entry partner): as the sequence (O75530 whole entry partner) above
# Sequence of EZH2 (rPRC2) (Q15022 whole entry partner): as the sequence (Q15022 whole entry partner) above
Compound,"pIC50 [1, 3]","pIC50 [2, 4]","pIC50 [1, 5]","pIC50 [2, 6]","Y641N EZH2 IC50 ([1]; Y641N mutant EZH2, H3K27Me2 oligonucleosome substrate)"
"COC[C@H](C)n1c(C)c(C(=O)NCc2c(OC)cc(C)[nH]c2=O)c2cncnc21 [Compound 287, (S)-N-((4-methoxy-6-methyl-2-oxo-1,2-dihydropyridin-3-yl)methyl)-7-(1-methoxypropan-2-yl)-6-methyl-7H-pyrrolo[2,3-d]pyrimidine-5-carboxamide]",5.00 to 6.00,6.00 to 7.00,,,
"COc1cc(C)[nH]c(=O)c1CNC(=O)c1c(C)n(C(C)C2COCCO2)c2ccccc12 (stereo not shown) [Compound 348, 1-(1-(1,4-dioxan-2-yl)ethyl)-N-((4-methoxy-6-methyl-2-oxo-1,2-dihydropyridin-3-yl)methyl)-2-methyl-1H-indole-3-carboxamide]",> 7.00,> 7.00,,,
"Cc1cc(C)c(CNC(=O)c2c(C)n(-c3ccccc3)c3ccccc23)c(O)n1 [Compound 133, N-((2-hydroxy-4,6-dimethylpyridin-3-yl)methyl)-2-methyl-1-phenyl-1H-indole-3-carboxamide]",,,6.00 to 7.00,> 7.00,
"COc1ncc2c(C(=O)NCc3c(C)cc(C)nc3O)c(C)n([C@H](C)c3ccccc3)c2n1 [Compound 141, (R)—N-((2-hydroxy-4,6-dimethylpyridin-3-yl)methyl)-2-methoxy-6-methyl-7-(1-phenylethyl)-7H-pyrrolo[2,3-d]pyrimidine-5-carboxamide]",5.00 to 6.00,6.00 to 7.00,,,
"Cc1cc(C)c(CNC(=O)c2c(C)n(C(C)c3ccc(S(C)(=O)=O)cc3)c3ccccc23)c(=O)[nH]1 (racemic) [Compound 179, (±)-N-((4,6-dimethyl-2-oxo-1,2-dihydropyridin-3-yl)methyl)-2-methyl-1-(1-(4-(methylsulfonyl)phenyl)ethyl)-1H-indole-3-carboxamide]",6.00 to 7.00,> 7.00,,,
"CCOc1cc(C)[nH]c(=O)c1CNC(=O)c1c(C)n(C(C)c2ccccc2)c2cnccc12 (racemic) [Compound 255, (±)-N-((4-ethoxy-6-methyl-2-oxo-1,2-dihydropyridin-3-yl)methyl)-2-methyl-1-(1-phenylethyl)-1H-pyrrolo[2,3-c]pyridine-3-carboxamide]",5.00 to 6.00,> 7.00,,,
"Cc1cc(C)c(CNC(=O)c2c(C)n(C(C)c3ccccc3C#N)c3ccccc23)c(=O)[nH]1 (racemic) [Compound 178, (±)-1-(1-(2-cyanophenyl)ethyl)-N-((4,6-dimethyl-2-oxo-1,2-dihydropyridin-3-yl)methyl)-2-methyl-1H-indole-3-carboxamide]",5.00 to 6.00,6.00 to 7.00,,,
"CCC(C)n1c(C)c(C(=O)NCc2c(C)cc(C)[nH]c2=O)c2cccnc21 (single isomer, unassigned) [Compound 195, (R or S)-1-(sec-butyl)-N-((4,6-dimethyl-2-oxo-1,2-dihydropyridin-3-yl)methyl)-2-methyl-1H-pyrrolo[2,3-b]pyridine-3-carboxamide]",,6.00 to 7.00,,,*(0.5 μM)
"CC[C@@H](C)n1c(C)c(C(=O)NCc2c(C)cc(C)[nH]c2=O)c2cnc(C)nc21 [Compound 200, (R)-7-(sec-butyl)-N-((4,6-dimethyl-2-oxo-1,2-dihydropyridin-3-yl)methyl)-2,6-dimethyl-7H-pyrrolo[2,3-d]pyrimidine-5-carboxamide]",5.00 to 6.00,6.00 to 7.00,,,
"Cc1cc(C)c(CNC(=O)c2cn(S(=O)(=O)c3ccccc3)c3ccccc23)c(=O)[nH]1 [Compound 135, N-((4,6-dimethyl-2-oxo-1,2-dihydropyridin-3-yl)methyl)-1-(phenylsulfonyl)-1H-indole-3-carboxamide]",,,< 5.00,5.00 to 6.00,
"CC[C@@H](C)n1c(C)c(C(=O)NCc2c(C)cc(C)[nH]c2=O)c2cnc(Cl)nc21 [Compound 184, (R)-7-(sec-butyl)-2-chloro-N-((4,6-dimethyl-2-oxo-1,2-dihydropyridin-3-yl)methyl)-6-methyl-7H-pyrrolo[2,3-d]pyrimidine-5-carboxamide]",5.00 to 6.00,6.00 to 7.00,,,
"Cc1cc(C)c(CNC(=O)c2c(C)n(C(C)c3cccc(C(N)=O)c3)c3ccccc23)c(=O)[nH]1 (single isomer, unassigned) [Compound 226, (R or S)-1-(1-(3-carbamoylphenyl)ethyl)-N-((4,6-dimethyl-2-oxo-1,2-dihydropyridin-3-yl)methyl)-2-methyl-1H-indole-3-carboxamide]",5.00 to 6.00,6.00 to 7.00,,,
"COc1cc(C)[nH]c(=O)c1CNC(=O)c1c(C)n(C(C)C(C)S(C)(=O)=O)c2ccccc12 (stereo not shown) [Compound 350, N-((4-methoxy-6-methyl-2-oxo-1,2-dihydropyridin-3-yl)methyl)-2-methyl-1-(3-(methylsulfonyl)butan-2-yl)-1H-indole-3-carboxamide]",> 7.00,> 7.00,,,
"COCC(C)n1c(C)c(C(=O)NCc2c(OC)cc(C)[nH]c2=O)c2cccnc21 (single isomer, unassigned) [Compound 257, (R or S)-N-((4-methoxy-6-methyl-2-oxo-1,2-dihydropyridin-3-yl)methyl)-1-(1-methoxypropan-2-yl)-2-methyl-1H-pyrrolo[2,3-b]pyridine-3-carboxamide]",5.00 to 6.00,6.00 to 7.00,,,
"COc1cc(C)[nH]c(=O)c1CNC(=O)c1c(C)n(C(C)C(C)OC)c2ccccc12 (single isomer, unassigned) [Compound 307, Trans-(R or S, R or S)-N-((4-methoxy-6-methyl-2-oxo-1,2-dihydropyridin-3-yl)methyl)-1-(3-methoxybutan-2-yl)-2-methyl-1H-indole-3-carboxamide]",> 7.00,> 7.00,,,
"Cc1cc(C)c(CNC(=O)c2c(C)n(Cc3ccccc3)c3ccccc23)c(O)n1 [Compound 119, 1-benzyl-N-((2-hydroxy-4,6-dimethylpyridin-3-yl)methyl)-2-methyl-1H-indole-3-carboxamide]",6.00 to 7.00,> 7.00,,,
"Cc1cc(C)c(CNC(=O)c2c(C)n(CC3(C)COC3)c3ccccc23)c(=O)[nH]1 [Compound 246, N-((4,6-dimethyl-2-oxo-1,2-dihydropyridin-3-yl)methyl)-2-methyl-1-((3-methyloxetan-3-yl)methyl)-1H-indole-3-carboxamide]",6.00 to 7.00,6.00 to 7.00,,,
